Where two headings read alike, the source gives them in different places.

The source of these data is patent publication US9758561B2 (priority 2014, dated 2017).

The target of one data set is T1, human GLP-1 receptor (Homo sapiens, UniProt P43220).
T1 construct: expressed in transfected cells; host or cells: HEK-293
The data set is described as follows: cAMP response of HEK-293 cells stably expressing human GLP-1 receptor (HTRF). The data set is classed as cell-based. The following applies: Table 6; read-out: EC50 hGLP-1R. In outline: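 HEK-293 cells stably expressing the receptor were taken up in HBSS/20 mM HEPES/0.1% BSA with 2 mM IBMX at 400000 cells/ml. They were exposed to increasing concentrations of peptide for 30 minutes at room temperature, and formed cAMP was measured by HTRF.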
For orientation: TR-FRET usually uses a lanthanide donor and a delayed reading to cut background.

For the next data set, the target named is T2, human glucagon receptor (Homo sapiens, UniProt P47871).
T2 construct: expressed in transfected cells; host or cells: HEK-293
T2 sequence (P47871 26-477): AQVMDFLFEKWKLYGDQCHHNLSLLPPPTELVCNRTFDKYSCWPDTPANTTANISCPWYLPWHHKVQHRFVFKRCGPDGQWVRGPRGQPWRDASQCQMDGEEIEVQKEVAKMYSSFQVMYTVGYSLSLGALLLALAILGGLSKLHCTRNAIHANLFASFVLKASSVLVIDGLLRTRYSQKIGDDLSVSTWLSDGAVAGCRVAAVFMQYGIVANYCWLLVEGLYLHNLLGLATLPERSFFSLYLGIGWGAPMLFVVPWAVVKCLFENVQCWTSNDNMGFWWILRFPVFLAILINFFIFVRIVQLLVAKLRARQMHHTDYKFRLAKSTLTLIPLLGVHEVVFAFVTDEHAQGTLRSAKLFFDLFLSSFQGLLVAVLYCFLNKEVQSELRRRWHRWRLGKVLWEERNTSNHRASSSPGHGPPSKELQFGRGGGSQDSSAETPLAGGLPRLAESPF
Nature of the data set: cAMP response of HEK-293 cells stably expressing human glucagon receptor (HTRF). The data set is classed as cell-based. The following applies: Table 6; read-out: EC50 hGlucagon-R. How it is done: (§1) For preparation, cells were split into T175 culture flasks and grown overnight to near confluency in medium (DMEM/10% FBS). Medium was then removed and cells washed with PBS lacking calcium and magnesium, followed by proteinase treatment with accutase (Sigma-Aldrich cat. no. A6964). Detached cells were washed and resuspended in assay buffer (1×HBSS; 20 mM HEPES, 0.1% BSA, 2 mM IBMX) and cellular density determined. They were then diluted to 400000 cells/ml and 25 μl-aliquots dispensed into the wells of 96-well plates. For measurement, 25 μl of test compound in assay buffer was added to the wells, followed by incubation for 30 minutes at room temperature. […] Potencies of peptidic compounds at the GLP-1, glucagon and GIP receptors were determined by exposing cells expressing human glucagon receptor (hGlucagon R), human GIP receptor (hGIP-R) or human GLP-1 receptor (hGLP-1R) to the listed compounds at increasing concentrations and measuring the formed cAMP as described in Methods.

The next data set concerns the target T3, human GIP receptor (Homo sapiens, UniProt P48546).
T3 construct: expressed in transfected cells; host or cells: HEK-293
T3 sequence (P48546 22-466): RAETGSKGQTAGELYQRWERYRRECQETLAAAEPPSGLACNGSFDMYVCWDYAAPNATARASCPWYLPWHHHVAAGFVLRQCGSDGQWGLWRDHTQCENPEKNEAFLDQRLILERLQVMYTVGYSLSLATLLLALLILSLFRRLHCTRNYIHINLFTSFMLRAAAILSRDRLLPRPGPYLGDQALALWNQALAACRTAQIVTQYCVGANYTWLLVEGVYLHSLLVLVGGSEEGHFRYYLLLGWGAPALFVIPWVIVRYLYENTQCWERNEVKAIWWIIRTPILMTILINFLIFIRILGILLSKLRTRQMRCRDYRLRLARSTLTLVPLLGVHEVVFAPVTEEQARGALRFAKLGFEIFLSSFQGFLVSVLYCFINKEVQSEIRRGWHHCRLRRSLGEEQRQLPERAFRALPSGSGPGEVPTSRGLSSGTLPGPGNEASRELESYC
Nature of the data set: cAMP response of HEK-293 cells stably expressing human GIP receptor (HTRF). It is filed as cell-based. The following applies: Table 6; read-out: EC50 hGIP-R. As to the method:
as §1

The nature of data set [1]: Solubility testing in buffer (HPLC-UV). The data set is classed as physicochemical. As to the method: Prior to the testing of solubility and stability of a peptide batch, its purity (HPLC-UV) was determined. […] Therefore, solutions from solid samples were prepared in different buffer systems with a concentration of 10 mg/mL compound based on the previously determined % purity. HPLC-UV was performed after 2 h of gentle agitation from the supernatant, which was obtained by 20 min of centrifugation at 4500 rpm. […] This analysis also served as starting point (t0) for the stability testing.

Data set [2] in a line: Stability testing in solution, 7 days at 40° C. (HPLC-UV). It is filed as physicochemical. As to the method: After that time course, the sample was centrifuged for 20 min at 4500 rpm and 0.2 μL of the supernatant were analysed with HPLC-UV.
For determination of the amount of the remaining peptide, the peak areas of the target compound at t0 and t7 were compared, resulting in “% remaining peptide”, following the equation % remaining peptide=[(peak area peptide t7)×100]/peak area peptide t0.
The stability is expressed as “% remaining peptide”.

T1 sequence (P43220 24-463): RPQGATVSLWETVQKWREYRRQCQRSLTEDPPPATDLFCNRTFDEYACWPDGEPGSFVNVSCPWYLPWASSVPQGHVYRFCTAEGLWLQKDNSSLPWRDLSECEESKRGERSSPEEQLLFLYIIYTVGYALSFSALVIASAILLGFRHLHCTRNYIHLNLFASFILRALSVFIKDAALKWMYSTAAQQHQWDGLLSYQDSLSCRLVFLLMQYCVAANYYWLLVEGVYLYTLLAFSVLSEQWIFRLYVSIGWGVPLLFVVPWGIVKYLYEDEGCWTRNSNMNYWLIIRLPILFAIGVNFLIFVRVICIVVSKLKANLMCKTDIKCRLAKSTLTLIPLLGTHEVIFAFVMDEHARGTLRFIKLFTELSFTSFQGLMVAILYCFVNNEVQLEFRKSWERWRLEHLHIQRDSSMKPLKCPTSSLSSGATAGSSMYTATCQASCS

By EC50 is commonly meant the concentration needed to bring the measured effect to its halfway point. One may read the solubility as the dissolved amount per volume that the medium holds. As to `CCCCCCCCCCCCCCCC(=O)N[C@@H](CCC(=O)NCCCC[C@H](NC(=O)[C@H](CCC(N)=O)NC(=O)[C@H](CCCCN)NC(=O)[C@H](CO)NC(=O)[C@H](CC(C)C)NC(=O)[C@H](CC(=O)O)NC(=O)[C@H](CO)NC(=O)[C@@H](NC(=O)[C@H](Cc1ccccc1)NC(=O)[C@@H](NC(=O)CNC(=O)[C@H](CCC(N)=O)NC(=O)[C@@H](CO)NC(=O)[C@@H](N)Cc1c[nH]cn1)[C@@H](C)O)[C@@H](C)O)C(=O)N[C@@H](CC(=O)O)C(=O)N[C@@H](CCC(=O)O)C(=O)N[C@@H](CCC(=O)O)C(=O)N[C@@H](C)C(=O)N[C@@H](C)C(=O)N[C@@H](CCCNC(=N)N)C(=O)N[C@@H](CC(C)C)C(=O)N[C@@H](Cc1ccccc1)C(=O)N[C@H](C(=O)N[C@@H](CCC(=O)O)C(=O)N[C@@H](Cc1c[nH]c2ccccc12)C(=O)N[C@@H](CC(C)C)C(=O)NC(C)(C)C(=O)N[C@@H](C)C(=O)NCC(=O)NCC(=O)N1CCC[C@H]1C(=O)N[C@@H](CO)C(=O)N[C@@H](CO)C(=O)NCC(=O)N[C@@H](C)C(=O)N1CCC[C@H]1C(=O)N1CCC[C@H]1C(=O)N1CCC[C@H]1C(=O)N[C@@H](CO)C(N)=O)[C@@H](C)CC)C(=O)O` [SEQ ID NO: 14, H-dSer-Q-G-T-F-T-S-D-L-S-K-Q-K(γE-x53)-D-E-E-A-A-R-L-F-I-E-W-L-Aib-A-G-G-P-S-S-G-A-P-P-P-S-NH2], the figures for the EC50 at human GLP-1 receptor, at human glucagon receptor and on human GIP receptor were 0.0021 nM, 0.0247 nM and 5.36 nM, respectively. Moreover, the solubility at 2 h in data set [1] (pH 4.5, target concentration 10 mg/ml, read-out: solubility pH 4.5) was more than 8000 µg/mL; in data set [1] (pH 7.4, target concentration 10 mg/ml, read-out: solubility pH 7.4), more than 8000 µg/mL. Also, in data set [2] (pH 4.5, 7 days at 40° C. in solution), the “Stability pH 4.5” value turned out to be 94.7 % remaining peptide. The “Stability pH 7.4” value in data set [2] (pH 7.4, 7 days at 40° C. in solution) worked out at 96.3 % remaining peptide.
